Results reported in patent US8124964B2, “Field-effect transistor” (Nippon Kayaku Kabushiki Kaisha, priority 2006, dated 2012).

How the values were obtained:
[1] = Solubility Test 2: solubility to chloroform; format: physicochemical; details: room temperature, visually checked
Procedure: (§1) To confirm solubility to solvent, the solubility of a test compound to chloroform was measured. A test compound was added to chloroform little by little at room temperature and stirred. The solubility was determined by visually checking whether it was dissolved or not. When the test compound remained undissolved, the total amount by mass of the test compound added immediately before the moment was calculated and the solubility to chloroform was expressed in terms of % by mass.
After a chloroform suspension solution of the compound represented by the formula (101) above was prepared, insoluble solid substances were filtered off to obtain a filtrate. The solubility of the compound represented by the formula (101) above to the filtrate was 0.02% by mass.

[2] = Solubility Test 1: solubility to toluene; format: physicochemical; details: for Solubility (% by mass): to toluene, room temperature, visually checked
Procedure: as §1, with “solvent, which is one of the important characteristics of a semiconductor manufactured by coating,” for “solvent,”, “toluene” for “chloroform”
The “Compound No.” of Table 2 is the same as defined in Table 1. Furthermore, in Comparative Example 1, the solubility of Compound 16 of Example 15 disclosed in Patent Document 3 to toluene was calculated by the same test method as above. The structural formula of the compound used in Comparative Example 1 is shown in the formula (101) below.

Solubility (% by mass) [1] [% by mass] | Solubility (% by mass) [2] | Solubility (% by mass) ([2]; listed as formula (101)) | solubility to toluene relative to the aryl derivative of Comparative Example 1 [2] | SMILES
0.02 | 0.01 or less % by mass | not more than 0.01 % by mass | – | c1ccc(-c2ccc3c(c2)sc2c4ccc(-c5ccccc5)cc4sc32)cc1 [Comparative Example 1, reference compound]
0.6 | 0.2 % by mass | – | ≥ 20 fold | CCCCCCCCCCCCc1ccc2c(c1)sc1c3ccc(CCCCCCCCCCCC)cc3sc21 [Compound No. 20, 2,7-Didodecyl[1]benzothieno[3,2-b][1]benzothiophene]
5.4 | 1.5 % by mass | – | at least 50 fold | CCCCCCCCc1ccc2c(c1)sc1c3ccc(CCCCCCCC)cc3sc21 [Compound No. 16, 2,7-Dioctyl[1]benzothieno[3,2-b][1]benzothiophene]
